Measured values reported in patent US11266644B2, “Pharmaceutical composition for preventing and treating diabetic nephropaphy including adenosine derivative” (FUTURE MEDICINE CO., LTD., priority 2017, dated 2022).

Legend:
db/db diabetic mice [1] = assay: Type 2 diabetic renal damage, db/db mice, comparison with Losartan (Experimental Example 2); type: in vivo; settings: oral, daily 12 weeks, Formula B 10 mg/kg; for glomerular filtration rate decrease / glomerular hypertrophy / proteinuria / tubular injury: Losartan 1.5 mg/kg (FIG. 4-6); for renal fibrosis: Losartan 1.5 mg/kg (FIG. 7, 8); for inflammation response: Losartan 1.5 mg/kg (FIG. 9, 10); for oxidative stress: Losartan 1.5 mg/kg (FIG. 11, 12); for lipid accumulation: Losartan 1.5 mg/kg (FIG. 13, 14)
Protocol: In order to compare the therapeutic efficacy between the adenosine derivative of the present invention and Losartan, which is used for alleviating the symptoms of diabetic kidney disease, the following animal experiments were performed.
The compound of Chemical Formula B and rosartan were oral administered at a dose of 10 mg/kg and 1.5 mg/kg to 8-week-old normal db/m mice in which diabetes were not induced and 8-week-old db/db diaetic mice in which diabetes were induced, respectively for 12 weeks daily. The kidneys of the solvent control group and the drug administration group were extracted to observe the histological changes of the glomeruli and the changes in the indicators for renal damage such as proteinuria, glomerular filtration rate reduction, tubular injury, glomerular hypertrophy, renal fibrosis, inflammatory response, oxidative stress and lipid accumulation were compared.
(§1) The morphological analysis of kidney including glomeruli was performed by PAS staining of kidney tissues followed by random selection of each 50, quantification by an image analyzer and statistics, and urinary albumin and LPO were analyzed by electrophoresis and ELISA (Enzyme-Linked ImmunoSorbent Assay) and mRNA expression was analyzed by real time PCR.
Glomerular filtration rate was calculated by measuring blood and urine creatinine using the Jaffe method and changes in kidney protein were measured by western blot, ELISA and immunohistochemistry.
In FIG. 4 to FIG. 14, db/m and db/db represent the mice to which the solvent (0.25% CMC) used in administering the compound of Chemical Formula B was administered, respectively, and db/m+LJ2698 and db/db+LJ2698 represent normal mice and diabetic mice to which the compound of Chemical Formula B is administered for 12 weeks, respectively. db/db+Losartan represents diabetic mice to which Losartan was administered for 12 weeks.

db/db diabetic mice [2] = assay: Type 2 diabetic renal damage, db/db mice, dose-dependency (Experimental Example 1); type: in vivo; settings: db/db mice, 1.5, 5 and 10 mg/kg
Protocol: The following animal experiments were performed to examine the inhibitory effect of the adenosine derivatives of the present invention on renal damage in the type 2 diabetes model.
After 12 weeks of the administration, kidneys of the solvent control group and the test substance administration group were extracted to observe the histological changes of the glomeruli and the levels of urinary albumin and LPO (lipid peroxide) or the amount of mRNA expression for nephrin, NGAL, TGF-β, collagen IV, fibronectin, MCP-1 and ICAM-1 was set as an index for renal damage and the protective effect for kidney was measured. Db/m mice in which diabetes were not induced, were added as a control group and only a solvent was administered to observe and measure the above items.
Of these indices, urinary albumin level means proteinuria, nephrin reduction means podocyte injury, NGAL increase means tubular injury, TGF-β increase means fibrosis, inflammatory cytokine (MCP-1, ICAM-1) increase means Inflammatory response and LPO values indicate oxidative stress.
as §1, with “of” for “of kidney including”, “PAS (Periodic Acid Schiff)” for “PAS”
In FIG. 2 and FIG. 3, db/m represents normal mice, db/db represents diabetic mice administered with only solvent (0.25% CMC) and db/db+LJ2698 (1.5 mg/kg), db/db+LJ2698 (5 mg/kg) and db/db+LJ2698 (10 mg/kg) represent diabetic mice in which the compound of Chemical Formula B is administered at 1.5, 5 and 10 mg/kg, respectively, for 12 weeks daily.

[3] = tested on: mice in which type 1 diabetes was induced (STZ); assay: Type 1 diabetic renal damage, streptozotocin-induced diabetic mice (Experimental Example 3); type: in vivo; settings: daily 12 weeks, Formula B 10 mg/kg
Protocol: The following animal experiments were performed to examine the inhibitory effect on the kidney injury by administering the adenosine derivative of the present invention to an animal model of type 1 diabetes.
After streptozotocin (STZ) was administered to normal mice for 5 days to induce type 1 diabetes, the mice have been classified into, a group in which 10 mg/kg compound of Chemical Formula B was administered daily, a group in which 1.5 mg/kg of LC158809, a type of ARB, was administered daily, and a group in which 10 mg/kg compound of Chemical Formula B and 1.5 mg/kg of LC158809 were co-administered daily, then all groups were given total of 12 weeks administration.
Kidney function and histologic changes of the kidney and the like were examined for normal mice to which streptozotocin was not administered, diabetic mice to which the only solvent was administered after 12 weeks of streptozotocin administration and diabetic mice to which test substance was administered after 12 weeks of streptozotocin administration.
FIG. 15 to FIG. 17 are graphs showing the results of measuring the levels of urinary albumin, nephrin and 8-isoprostan according to the above-mentioned experiment. Urine albumin, nephrin and 8-isoprostanone levels were measured as indicators of proteinuria, glomerular podocyte damage and oxidative stress, respectively.
In FIG. 15 to FIG. 19, Control and STZ represent normal mice and mice in which type 1 diabetes was induced, and STZ+ARB, STZ+LJ2698 and STZ+ARB+LJ2698 represent diabetic mice in which […] and the compound of Chemical Formula B+LC158809 (co-administration) were administered for 12 weeks, respectively.

[4] = tested on: mice-derived glomerular podocyte; assay: Inflammation and fibrosis response in cultured glomerular podocytes (Experimental Example 4); type: cell-based; settings: induced with high glucose, angiotensin II and free fatty acids (FIG. 20)
Protocol: (§2) In order to examine the anti-inflammatory and anti-fibrotic effects of the adenosine derivatives of the present invention on cultured cells, the following in vitro experiments were performed.

[5] = tested on: mice-derived tubular epithelial cells; assay: Inflammation and fibrosis response in cultured tubular epithelial cells (Experimental Example 4); type: cell-based; settings: induced with high glucose, angiotensin II and free fatty acids (FIG. 20)
Protocol: as §2

[6] = LC158809 1.5 mg/kg (FIG. 18, 19)

In the case of `CCCCc1nc(Cl)c(CO)n1Cc1ccc(-c2ccccc2-c2nn[nH]n2)cc1` [Losartan, (2-butyl-4-chloro-1-{[2′-(1H-tetrazol-5-yl)biphenyl-4-yl]methyl}-1H-imidazol-5-yl}methanol, reference compound], the “glomerular filtration rate decrease” value (db/db diabetic mice [1]) was “similar”, the glomerular hypertrophy (db/db diabetic mice [1]) was “similar” and the proteinuria (db/db diabetic mice [1]) was “similar”. For the same compound, the tubular injury (db/db diabetic mice [1]) was “similar”, the renal fibrosis (db/db diabetic mice [1]) was “inhibited to a similar level” and the inflammation response (db/db diabetic mice [1]) was “inhibited to a similar level”. The oxidative stress (db/db diabetic mice [1]) was “inhibited to a similar level” and the lipid accumulation (db/db diabetic mice [1]) was “inhibited to a similar level”.
`O[C@@H]1[C@H](O)CS[C@H]1n1cnc2c(NCc3cccc(Cl)c3)nc(Cl)nc21` [compound of Chemical Formula B, (2R,3R,4S)-2-(2-chloro-6-(3-chlorobenzylamino)-9H-purin-9-yl)tetrahydrothiophene-3,4-diol] was tested, and the “vasodilation (glomerular mesangium)” value (db/db diabetic mice [2]; 12 weeks (FIG. 1, 2)) was “significantly inhibited”, the “urinary albumin levels (proteinuria)” value (db/db diabetic mice [2]; 12 weeks (FIG. 3)) was “inhibited dependently on dose” and the glomerular hypertrophy (db/db diabetic mice [2]; 12 weeks, PAS staining (FIG. 1, 2)) was “significantly inhibited”. The “NGAL (tubular injury indicator)” value (db/db diabetic mice [2]; 12 weeks, mRNA (FIG. 3)) was “inhibited dependently on dose”, the “TGF-β (fibrosis indicator)” value (db/db diabetic mice [2]; 12 weeks, mRNA (FIG. 3)) was “inhibited dependently on dose” and the “collagen IV” value (db/db diabetic mice [2]; 12 weeks, mRNA (FIG. 3)) was “inhibited dependently on dose”. For the same compound, the “nephrin (podocyte injury indicator)” value (db/db diabetic mice [2]; 12 weeks, mRNA (FIG. 3)) was “inhibited dependently on dose”, the “glomerular filtration rate decrease” value (db/db diabetic mice [1]) was “inhibited” and the glomerular hypertrophy (db/db diabetic mice [1]) was “inhibited”. For the same compound, the proteinuria (db/db diabetic mice [1]) was “inhibited”, the tubular injury (db/db diabetic mice [1]) was “inhibited” and the renal fibrosis (db/db diabetic mice [1]) was “inhibited to a similar level”. The inflammation response (db/db diabetic mice [1]) was “inhibited to a similar level”, the oxidative stress (db/db diabetic mice [1]) was “inhibited to a similar level” and the lipid accumulation (db/db diabetic mice [1]) was “inhibited to a similar level”. The “urinary nephrin (glomerular podocyte damage)” value ([3]; LC158809 1.5 mg/kg (FIG. 16)) was “significantly reduced”, the “fibrosis of the kidney” value [3, 6] was “significantly reduced” and the “inflammation of the kidney” value [3, 6] was “significantly reduced”. The “urinary albumin (proteinuria)” value ([3]; LC158809 1.5 mg/kg, alone or co-administered (FIG. 15)) was “significantly reduced”, the “urinary 8-isoprostanone (oxidative stress)” value ([3]; LC158809 1.5 mg/kg, alone or co-administered (FIG. 17)) was “significantly reduced” and the “anti-fibrosis effect (collagen IV)” value [4] was “anti-fibrosis”. The “anti-inflammatory effect (Nephrin, MCP-1)” value [4] was “anti-inflammatory effect”, the “antioxidant effect (NOX4)” value [4] was “antioxidant” and the “anti-fibrosis effect (collagen IV)” value [5] was “anti-fibrosis”. For the same compound, the “anti-inflammatory effect (Nephrin, MCP-1)” value [5] was “anti-inflammatory effect” and the “antioxidant effect (NOX4)” value [5] was “antioxidant”.
